Experiments:
Type in all cases: in vivo
[1] = tested on: Kochia (Kochia scoparia); test: Test A preemergence; conditions: Bassia scoparia, pre-emergence, 240 h, preemergence, 0 to 100 scale where 0 is no effect and 100 is complete control, read-out: Kochia plant response rating; for pest or weed control at 125 g/ha: 125 g ai/ha, visual injury rating, approximately 10 d; for pest or weed control at 500 g/ha: 500 g ai/ha
How it was run: (§1)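 Preemergence directed soil spray on seeded pots, or postemergence application to plants 2–10 cm, one- to two-leaf. Solvent mixture non-phytotoxic, with surfactant. Scored ~10 d later, visually, 0–100 vs untreated.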

[2] = tested on: barnyardgrass (Echinochloa crus-galli); test: Test A preemergence; conditions: Echinochloa crus-galli, pre-emergence, 240 h, preemergence, 0 to 100 scale where 0 is no effect and 100 is complete control, read-out: Barnyardgrass plant response rating; for pest or weed control at 125 g/ha: 125 g ai/ha, visual injury rating, approximately 10 d; for pest or weed control at 500 g/ha: 500 g ai/ha
How it was run: as §1

[3] = tested on: giant foxtail (Setaria faberii); test: Test A preemergence; conditions: Setaria faberi, pre-emergence, 240 h, preemergence, 0 to 100 scale where 0 is no effect and 100 is complete control, read-out: Foxtail, Giant plant response rating; for pest or weed control at 125 g/ha: 125 g ai/ha, visual injury rating, approximately 10 d; for pest or weed control at 500 g/ha: 500 g ai/ha
How it was run: as §1

[4] = tested on: pigweed (Amaranthus retroflexus); test: Test A preemergence; conditions: Amaranthus retroflexus, pre-emergence, 240 h, preemergence, 0 to 100 scale where 0 is no effect and 100 is complete control, read-out: Pigweed plant response rating; for pest or weed control at 125 g/ha: 125 g ai/ha, visual injury rating, approximately 10 d; for pest or weed control at 500 g/ha: 500 g ai/ha
[5] = tested on: ragweed (common ragweed, Ambrosia elatior); test: Test A preemergence; conditions: Ambrosia artemisiifolia, pre-emergence, 240 h, preemergence, 0 to 100 scale where 0 is no effect and 100 is complete control, read-out: Ragweed plant response rating; for pest or weed control at 125 g/ha: 125 g ai/ha, visual injury rating, approximately 10 d; for pest or weed control at 500 g/ha: 500 g ai/ha
How it was run: as §1

[6] = tested on: ryegrass, Italian (Italian ryegrass, Lolium multiflorum); test: Test A preemergence; conditions: Lolium multiflorum, pre-emergence, 240 h, preemergence, 0 to 100 scale where 0 is no effect and 100 is complete control, read-out: Ryegrass, Italian plant response rating; for pest or weed control at 125 g/ha: 125 g ai/ha, visual injury rating, approximately 10 d; for pest or weed control at 500 g/ha: 500 g ai/ha
How it was run: as §1

[7] = tested on: Galium (catchweed bedstraw, Galium aparine); test: Test A postemergence; conditions: Galium, post-emergence, 240 h, postemergence; for pest or weed control at 125 g/ha: 125 g ai/ha, visual injury vs untreated controls after approx. 10 d, 0 = no effect, 100 = complete control, read-out: Galium plant response rating (0 to 100 scale); for pest or weed control at 500 g/ha: 500 g ai/ha, 0 to 100 scale, 0 is no effect, 100 is complete control, read-out: Galium plant response rating
How it was run: as §1

[8] = tested on: barnyardgrass (Echinochloa crus-galli); test: Test A postemergence; conditions: Echinochloa crus-galli, post-emergence, 240 h, postemergence; for pest or weed control at 125 g/ha: 125 g ai/ha, visual injury vs untreated controls after approx. 10 d, 0 = no effect, 100 = complete control, read-out: Barnyardgrass plant response rating (0 to 100 scale); for pest or weed control at 500 g/ha: 500 g ai/ha, 0 to 100 scale, 0 is no effect, 100 is complete control, read-out: Barnyardgrass plant response rating
How it was run: as §1

[9] = tested on: corn (Zea mays); test: Test A postemergence; conditions: Zea mays, post-emergence, 240 h, postemergence; for plant injury at 125 g/ha: 125 g ai/ha, visual injury vs untreated controls after approx. 10 d, 0 = no effect, 100 = complete control, read-out: Corn plant response rating (0 to 100 scale); for plant injury at 500 g/ha: 500 g ai/ha, 0 to 100 scale, 0 is no effect, 100 is complete control, read-out: Corn plant response rating
How it was run: as §1

[10] = tested on: giant foxtail (Setaria faberii); test: Test A postemergence; conditions: Setaria faberi, post-emergence, 240 h, postemergence; for pest or weed control at 125 g/ha: 125 g ai/ha, visual injury vs untreated controls after approx. 10 d, 0 = no effect, 100 = complete control, read-out: Foxtail, Giant plant response rating (0 to 100 scale); for pest or weed control at 500 g/ha: 500 g ai/ha, 0 to 100 scale, 0 is no effect, 100 is complete control, read-out: Foxtail, Giant plant response rating
How it was run: as §1

[11] = tested on: pigweed (Amaranthus retroflexus); test: Test A postemergence; conditions: Amaranthus retroflexus, post-emergence, 240 h, postemergence; for pest or weed control at 125 g/ha: 125 g ai/ha, visual injury vs untreated controls after approx. 10 d, 0 = no effect, 100 = complete control, read-out: Pigweed plant response rating (0 to 100 scale); for pest or weed control at 500 g/ha: 500 g ai/ha, 0 to 100 scale, 0 is no effect, 100 is complete control, read-out: Pigweed plant response rating
How it was run: as §1

[12] = tested on: ragweed (common ragweed, Ambrosia elatior); test: Test A postemergence; conditions: Ambrosia artemisiifolia, post-emergence, 240 h, postemergence; for pest or weed control at 125 g/ha: 125 g ai/ha, visual injury vs untreated controls after approx. 10 d, 0 = no effect, 100 = complete control, read-out: Ragweed plant response rating (0 to 100 scale); for pest or weed control at 500 g/ha: 500 g ai/ha, 0 to 100 scale, 0 is no effect, 100 is complete control, read-out: Ragweed plant response rating
How it was run: as §1

[13] = tested on: ryegrass, Italian (Italian ryegrass, Lolium multiflorum); test: Test A postemergence; conditions: Lolium multiflorum, post-emergence, 240 h, postemergence; for pest or weed control at 125 g/ha: 125 g ai/ha, visual injury vs untreated controls after approx. 10 d, 0 = no effect, 100 = complete control, read-out: Ryegrass, Italian plant response rating (0 to 100 scale); for pest or weed control at 500 g/ha: 500 g ai/ha, 0 to 100 scale, 0 is no effect, 100 is complete control, read-out: Ryegrass, Italian plant response rating
How it was run: as §1

[14] = tested on: wheat (Triticum aestivum); test: Test A postemergence; conditions: Triticum aestivum, post-emergence, 240 h, postemergence; for plant injury at 125 g/ha: 125 g ai/ha, visual injury vs untreated controls after approx. 10 d, 0 = no effect, 100 = complete control, read-out: Wheat plant response rating (0 to 100 scale)
How it was run: as §1

Cc1ccc([C@H]2CCN(C)C(=O)[C@@H]2C(=O)Nc2cccc(F)c2F)cc1 [Compound 1220]
pest or weed control at 125 g/ha [1]: 40% | pest or weed control at 500 g/ha [1]: 50% | pest or weed control at 125 g/ha [2]: 90% | pest or weed control at 500 g/ha [2]: 90% | pest or weed control at 125 g/ha [3]: 90% | pest or weed control at 500 g/ha [3]: 90% | pest or weed control at 125 g/ha [4]: 20% | pest or weed control at 500 g/ha [4]: 40% | pest or weed control at 125 g/ha [5]: 30% | pest or weed control at 500 g/ha [5]: 40% | pest or weed control at 125 g/ha [6]: 30% | pest or weed control at 500 g/ha [6]: 50% | pest or weed control at 125 g/ha [7]: 30% | pest or weed control at 500 g/ha [7]: 40% | pest or weed control at 125 g/ha [8]: 70% | pest or weed control at 500 g/ha [8]: 80% | plant injury at 125 g/ha [9]: 30% | plant injury at 500 g/ha [9]: 70% | pest or weed control at 125 g/ha [10]: 80% | pest or weed control at 500 g/ha [10]: 80% | pest or weed control at 125 g/ha [11]: 20% | pest or weed control at 500 g/ha [11]: 20% | pest or weed control at 125 g/ha [12]: 20% | pest or weed control at 500 g/ha [12]: 30% | pest or weed control at 125 g/ha [13]: 20% | pest or weed control at 500 g/ha [13]: 30% | plant injury at 125 g/ha [14]: 20% | plant injury at 500 g/ha ([14]; 500 g ai/ha, 0 to 100 scale, 0 is no effect, 100 is complete control, read-out: Wheat plant response rating): 40%

CSc1ccccc1NC(=O)[C@H]1C(=O)N(C)C[C@@H]1c1cccc(C)c1 [Compound 1232]
pest or weed control at 125 g/ha [1]: 70% | pest or weed control at 500 g/ha [1]: 80% | pest or weed control at 125 g/ha [2]: 90% | pest or weed control at 500 g/ha [2]: 90% | pest or weed control at 125 g/ha [3]: 90% | pest or weed control at 500 g/ha [3]: 90% | pest or weed control at 125 g/ha [4]: 70% | pest or weed control at 500 g/ha [4]: 90% | pest or weed control at 125 g/ha [5]: 60% | pest or weed control at 500 g/ha [5]: 80% | pest or weed control at 125 g/ha [6]: 20% | pest or weed control at 500 g/ha [6]: 60% | pest or weed control at 125 g/ha [7]: 20% | pest or weed control at 500 g/ha [7]: 60% | pest or weed control at 125 g/ha [8]: 80% | pest or weed control at 500 g/ha [8]: 80% | plant injury at 125 g/ha [9]: 0% | plant injury at 500 g/ha [9]: 70% | pest or weed control at 125 g/ha [10]: 80% | pest or weed control at 500 g/ha [10]: 90% | pest or weed control at 125 g/ha [11]: 0% | pest or weed control at 500 g/ha [11]: 40% | pest or weed control at 125 g/ha [12]: 0% | pest or weed control at 500 g/ha [12]: 50% | pest or weed control at 125 g/ha [13]: 30% | pest or weed control at 500 g/ha [13]: 60% | plant injury at 125 g/ha [14]: 0%

Source: patent US12077503B2, “Substituted cyclic amides and their use as herbicides” (FMC CORPORATION, priority 2015, dated 2024)
